Results reported in patent US10336792B2, “Antimicrobial peptide dendrimers” (priority 2014, dated 2019).
≈ marks a conversion by molar mass, not a printed value. Residues, ends and D or L forms follow the SMILES beside them.

What was measured:
[1] = system: Bacillus subtilis (strain BR151); type: cell-based; details: LB medium
Method in brief: (§1)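 Broth microdilution MIC in LB; overnight cultures diluted to OD600 0.001 and mixed 1:1 with ⅔-serially diluted samples (stock 1 mg mL^−1 in H2O), 37° C for 18-24 h. MTT (0.1%) added; MIC read by eye as lowest concentration inhibiting visible growth (yellow).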

[2] = system: Escherichia coli (strain DH5α); type: cell-based; details: LB medium
Method in brief: as §1

[3] = system: human red blood cells (hRBC); assay: Haemolysis assay, minimal haemolytic concentration (MHC); type: cell-based; details: hRBC in PBS pH 7.4, 4 h, room temperature
Experimental: To determine the minimal haemolytic concentration (MHC) stock solutions of 8 mg/mL of the peptide dendrimers in H2O were prepared and 50 μL were diluted serially by ½ in 50 μL PBS (pH 7.4) in 96-well plate (Cornstar or Nunc, polystyrene, untreated). Human red blood cells (hRBC) were obtained by centrifuging 1.5 mL of whole blood from friendly donors at 3000 rpm for 15 minutes. Plasma was discarded and the pellet was re-suspended in a 15 mL falcon tube up to 5 mL of PBS. The washing was repeated three times and the remaining pellet was re-suspended in 10 mL of PBS at a final hRBC concentration of 5%. The hRBC suspension (50 μL) was added to each well and the plate was incubated at room temperature for 4 hours. Minimal haemolytic concentration (MHC) end points were determined by visual inspection of the wells after the incubation period. Controls on each plate included a blank medium control (50 μl PBS+50 μl of hRBC suspension) and a haemolytic activity control (mQ-deionized water 50 μL+50 μL hRBC suspension).
MIC (minimal inhibitory concentration) and MHC (minimal haemolytic concentration, determined on human red blood cells (hRBC)) values are given in μg/mL. When no detectable haemolytic activity was observed, the last measured concentration was used for calculation of the therapeutic index. TI (therapeutic index)=MHC (μg/ml)/geometric mean of MIC (μg/ml). Larger values indicate greater antimicrobial specificity.

[4] = Proteolytic stability with human serum; type: in vitro ADME; details: 100 μM peptide, human serum diluted with DMEM, 37 °C, up to 24 h
Experimental: Peptides and peptide dendrimers were prepared as 200 μM stock solution in PBS. 25% Human Serum (diluted with DMEM) was centrifuged at for 15 min at 14000 rpm to remove the lipids and supernatant was collected and incubated for 15 min at 37° C. Proteolysis was initiated upon addition of 50 μL of the test peptide or peptide dendrimer to 50 μL of serum and shaking at 37° C. Final peptide concentration is 100 μM. Reaction mixtures were analyzed after 0, 1, 6, 24 h by addition of ice-cold 10% Trichloroacetic acid (TCA) to precipitate serum proteins. The supernantant was collected for each sample after centrifugation at 14000 rpm for 15 min. and evaporated with a speedvac. After dissolving the solid in 100 μL mQ-H2O they were analyzed by RP-UPLC (flow rate: 1.2 mL/min. gradient: A/D=100/0 to 0/100 in 7.5 min). Conversions of the remaining peptide and peptide dendrimers were calculated by integration of the absorbance at 214 nm by using Chromeleon software.
The peptides were mixed with human serum (previously diluted with DMEM) to a final peptide concentration of 100 μM to determine the stability of AMPDs toward proteases and incubated at 37° C. for 0, 1, 6, or 24 hours. After precipitation of proteins with TCA, the solution was analyzed by analytical RP-UPLC. […] AMPDs MSt-114, MSt-136, MSt-138, MSt-139, MSt-140 and MSt-176 were also checked for their stability. […]

[5] = system: P. aeruginosa PAO1 bacterial suspension; assay: Detection of peptide in the presence of bacteria; type: in vitro ADME, Pseudomonas aeruginosa; details: 100 μM peptide, P. aeruginosa PAO1 in LB, 37 °C, up to 24 h
Experimental: Peptides and peptide dendrimers were prepared as 200 μM stock solution in H2O. A colony of bacteria was grown in LB-medium overnight at 37° C. The concentration was quantified by measuring absorbance at 600 nm and diluted to OD600=0.2. Degradation was initiated upon addition of 50 μL of the test peptide or peptide dendrimer to 50 μL of the bacterial suspension and shaking at 37° C. Final peptide concentration is 100 μM and final concentration of bacteria is OD600=0.1 (1×10^8 CFU/mL). Reaction mixtures were analyzed after 0, 1, 6, 9, 24 h by heating up to 95° C. for 5 min. followed by centrifugation for 15 min. at 14000 rpm. 50 μL of the supernantant were collected for each sample and 50 μL A were added giving a concentration of 50 μM. 5 μL of 4-Hydroxybenzoic acid (standard) were added before samples were analyzed by RP-UPLC (flow rate: 1.2 mL/min. gradient: A/D=100/0 to 0/100 in 7.5 min). Conversions of the remaining peptide and peptide dendrimers were calculated by integration of the absorbance at 214 nm by using Chromeleon software.
Bacteria were grown in LB overnight and diluted to OD600=0.2. After addition of the peptides to a concentration of 100 μM the samples were incubated for 0, 1, 6, 9, 24 hours at 37° C. After heating the suspension to 95° C. for 5 min and centrifugation the solution was subjected to UPLC and the remaining peptide was analyzed by using Chromeleon software.

[6] = system: Pseudomonas aeruginosa (strain PA01); assay: microbe, parasite or virus in culture; type: cell-based; details: Pseudomonas aeruginosa, PAO1; LB medium, serial 2/3 dilution, 37 °C, 18-24 h; read-out: MIC P. aeruginosa PAO1
Method in brief: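 P. aeruginosa PAO1 grown overnight in LB, diluted to OD600 0.001 and mixed with ⅔-step peptide dilutions, then incubated at 37 °C for 18–24 h. After MTT staining, the lowest concentration with no visible growth was read by eye as the MIC.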

[7] = system: Pseudomonas aeruginosa (strain PA01); type: cell-based; details: 25 μg/mL; 0, 1, 3, 6, 8, 24 h
Experimental: Cell viability was assayed against Pseudomonas aeruginosa (strain PA01). A colony of bacteria was grown in LB-medium overnight at 37° C. The concentration was quantified by measuring absorbance at 600 nm and diluted to OD600=0.1 (1×10^8 CFU/mL). The samples were prepared as stock solutions of 1 mg mL^−1 in H2O and diluted in LB to a concentration of 50 μg/mL in a 96-well microtiterplate (TPP, untreated). The sample solutions (50 μL) were mixed with the diluted bacterial suspension with an OD600 nm of 0.001 (50 μL). […] The plates were incubated at 37° C. for 1, 3, 6, 8 and 24 h. Each time point was assayed on a separate plate. For each test, two columns of the plate were kept for sterility control (SC, broth only) and growth control (GC, broth with bacterial inoculums, no antibiotics). After incubation 15 μL of WST-8 working solution (3.31 mg/mL WST-8 (Ochem Incorporation), 0.074 mg/mL PES (phenazine ethosulfate)) was added to each well and cells were incubated at 37° C. until GC had desired value. After the reaction took place, the final absorbance was read at 450 nm. For calculations, the value of the GC was set to 100% cell viability and the value of the negative control (no bacteria, SC) was set to 0% cell viability. […]
In order to determine the killing kinetics of AMPDs the amount of living bacteria was measured as a function of time after incubation with the AMPDs. […]

[8] = 5(6)-Carboxyfluorescein leakage from lipid vesicles; details: 10 mM TRIS, 107 mM NaCl, pH 7.4; peptide added at 50 s
Experimental: (§2) Preparation A thin lipid film was prepared by evaporating a solution of 25 mg Egg PC or Egg PG in 1 mL MeOH/CHCl3 1/1 on a rotary evaporator (rt) and then in vacuo overnight. The resulting film was hydrated with 1 mL buffer (50 mM CF, 10 mM TIRS, 10 mM NaCl, pH 7.4) for 30 min, subjected to freeze-thaw cycles (7×) and extrusion (15×) through a polycarbonate membrane (pore size 100 nm). Extravesicular components were removed by gel filtration (Sephadex G-50) with 10 mM TRIS, 107 mM NaCl, pH 7.4. Final conditions: ˜2.5 mM Egg PC or Egg PG; inside: 50 mM CF, 10 mM TIRS, 10 mM NaCl, pH 7.4; outside: 10 mM TRIS, 107 mM NaCl, pH 7.4.
(§3) Experiment Egg PC or Egg PG stock solutions (37.5 μL) were diluted with a buffer (10 mM TRIS, 107 mM NaCl, pH 7.4) and placed in a thermostated fluorescence cuvette (25° C.) and gently stirred (total volume in the cuvette ˜3000 μL; final lipid concentration ˜31.25 μM). CF efflux was monitored at λem 517 nm (λex 492 nm) as a function of time after addition of 20 μL of peptide dendrimer in buffer (10 mM TRIS, 107 mM NaCl, pH 7.4) with final concentrations of 1, 5, 7.5, 10, 15, 20, 25, 30 μg/mL at t=50 s and 1.2% trition X-100 (30 μL, 0.012% final concentration) at t=300 s. Fluorescence intensities were normalized to fractional emission intensity I(t) using I(t)=(It−I0)/(I∞−I0) where I0 It at peptide dendrimer addition, I∞=It at saturation of lysis.
Bacterial membranes contain relatively large amounts of exposed anionic lipids, while the outer leaflet of the membranes of plants and animals is composed mainly of lipids with no net charge. The charge composition of such membranes can be mimicked with phospholipid vesicles. Large unilamellar vesicles (LUVs) composed of the neutral phospholipid with PC (phosphatidyl choline) or with PG (phosphatidyl glycerol) with negative charges were prepared encapsulating 5(6)-carboxyfluorescein (CF). […] The higher the concentration of MSt-112 the higher is the CF leakage (FIG. 6A). […] Overall the active AMPDs interact with the negatively charged membrane and release the CF.

[9] = as above; details: 10 mM TRIS, 107 mM NaCl, pH 7.4; peptide added at 50 s; remark: listed apart in the source
Experimental: as §2, §3

MIC [6]	SMILES	MIC B. subtilis BR151 [1]	MIC E. coli DH5α [2]	MHC (minimal haemolytic concentration) [3]	Stability in human serum (remaining peptide signal, RP-UPLC) [4]	Stability in bacterial suspension (remaining peptide, UPLC) [5]	killing kinetics (bacterial survival over 24 hours) [7]	CF leakage from phosphatidylglycerol LUVs [8]	CF leakage from phosphatidylcholine LUVs [9]
	CC(C)C[C@H](NC(=O)[C@H](CC(C)C)NC(=O)[C@H](CCCCN)NC(=O)[C@H](C)NC(=O)[C@H](CC(C)C)NC(=O)[C@H](CCCCN)NC(=O)[C@H](CCCCN)NC(=O)[C@H](CC(C)C)NC(=O)[C@H](C)NC(=O)[C@H](CCCCN)NC(=O)[C@H](CCCCN)NC(=O)[C@H](Cc1ccc(O)cc1)NC(=O)[C@@H](N)CCCCN)C(N)=O [RHe-9, (KYKKALKKLAKLL), reference compound] (H-KYKKALKKLAKLL-NH2)	4 µg/mL (≈ 2.59 µM)	<1 µg/mL	not haemolytic	completely disappeared	not detectable after 9 hours			
0.5 µg/mL (≈ 1.07 µM)	NC[C@H]1O[C@H](O[C@H]2[C@H](O)[C@@H](O[C@H]3O[C@H](CO)[C@@H](O)[C@H](N)[C@H]3O)[C@H](N)C[C@@H]2N)[C@H](N)C[C@@H]1O [Tobramycin]						kill P. aeruginosa immediately	do not show release of CF	no CF release
